This passage reports phospho-RSK1-Ser380 signal and phospho-STAT-Ser727 signal results from patent publication US20210123061A1, “METHODS AND COMPOSITIONS FOR TREATING INFLAMMATORY DISEASE OR DISORDER” (THE BRIGHAM AND WOMEN'S HOSPITAL, INC., priority 2018, published 2021).

In one assay the test system is phospho-RSK1-Ser380. Put plainly: Anti-RSK1 immunoprecipitation and immunoblot in IFN-γ-stimulated PBMC-derived macrophages. The assay is classed as cell-based, human. The note with it: 10 μM pre-treatment two hours, IFN-γ up to 90 minutes, serum starvation. The protocol:
FIGS. 3A-3F show RSK1 is activated through JAK signaling and its inhibition suppresses STAT1 phosphorylation at Ser727 in human primary macrophages in response to IFN-γ. (FIG. 3A) PBMC-derived macrophages were pre-treated with DMSO or 10 μM a pan-JAK inhibitor, pyridone-6, for two hours and then stimulated with IFN-γ for indicated time under serum starvation. Cell lysates were subjected to immunoprecipitation with normal IgG or anti-RSK1 followed by immunoblot analysis using the indicated antibodies. WCL, whole cell lysate. N=3 donors. (FIG. 3B) Immunoblots of cell lysates from macrophages that were transfected with control siRNA or RSK1 siRNA followed by stimulation with IFN-γ for indicated time under serum starvation. N=2 donors. (FIG. 3C) Immunoblots of cell lysates from macrophages that were pre-treated with DMSO or BI-D1870 for two hours and subsequently left unstimulated or stimulated with IFN-γ for 1 hour under serum starvation. (FIG. 3D) Densitometric based quantification (ImageJ Software) of STAT1-pSer727 in panel (FIG. 3C) plus three additional donors. The phosphorylation levels in cells pretreated with DMSO and stimulated were defined as 1.0. Data are means±SE. […] (FIG. 3F) Quantification of PRM ions (MS/MS ions) of the indicated STAT1 peptide harboring a phosphorylation at Ser727 (and oxidized methionine, m), generated from the digest of panel […]. […]
Background: Immunoblotting shows a protein as a band on a membrane.

Assay [1] relates to STAT1 phosphorylation (Ser727, Tyr701). Put plainly: Immunoblot of STAT1 phosphorylation in IFN-γ-stimulated PBMC-derived macrophages. The assay is classed as cell-based, human. The settings on record: 10 μM pre-treatment, IFN-γ, cell lysates. The protocol:
FIGS. 3A-3F show RSK1 is activated through JAK signaling and its inhibition suppresses STAT1 phosphorylation at Ser727 in human primary macrophages in response to IFN-γ. (FIG. 3A) PBMC-derived macrophages were pre-treated with DMSO or 10 μM a pan-JAK inhibitor, pyridone-6, for two hours and then stimulated with IFN-γ for indicated time under serum starvation. Cell lysates were subjected to immunoprecipitation with normal IgG or anti-RSK1 followed by immunoblot analysis using the indicated antibodies. WCL, whole cell lysate. N=3 donors. (FIG. 3B) Immunoblots of cell lysates from macrophages that were transfected with control siRNA or RSK1 siRNA followed by stimulation with IFN-γ for indicated time under serum starvation. N=2 donors. (FIG. 3C) Immunoblots of cell lysates from macrophages that were pre-treated with DMSO or BI-D1870 for two hours and subsequently left unstimulated or stimulated with IFN-γ for 1 hour under serum starvation. (FIG. 3D) Densitometric based quantification (ImageJ Software) of STAT1-pSer727 in panel (FIG. 3C) plus three additional donors. The phosphorylation levels in cells pretreated with DMSO and stimulated were defined as 1.0. Data are means±SE. N=6 donors. **P<0.01 indicate significance for phosphorylation levels compared to control (treatment with DMSO and IFN-γ) by Dunnett's comparison test. (FIG. 3E) Macrophages were treated with DMSO or BI-d1870 for two hours followed by IFN-γ stimulation under serum starvation. Cell lysates were subjected to immunoprecipitation with normal IgG or anti-STAT1-pSer727 followed by SYPRO ruby stain or immunoblot analysis with the indicated antibodies. Immunoprecipitants in the gel (red square) were in-gel digested for parallel reaction monitoring (PRM) mass spectrometry. (FIG. 3F) Quantification of PRM ions (MS/MS ions) of the indicated STAT1 peptide harboring a phosphorylation at Ser727 (and oxidized methionine, m), generated from the digest of panel […].
Cell culture of human PBMC-derived primary macrophages. […]

As for `CC(C)(C)c1nc2c3cc[nH]c(=O)c3c3cc(F)ccc3c2[nH]1` [Pyridone-6], the phospho-RSK1-Ser380 signal result in the assay with phospho-RSK1-Ser380 is listed as “marked suppression”. For the same compound, the phospho-STAT-Ser727 signal entry in assay [1] is “similar”.
